Key:
Type in all cases: in vivo
[1] = system: powdery mildew of cucumber; experiment: Prevention experiment of powdery mildew of cucumber, living pot assay; conditions: 200 ppm; cucumber seedlings, about 10 days
Method: The living pot assay method was adopted, that is, the sample of the test compound was dissolved with a small amount of DMF solvent (the kind of solvent such as acetone, methanol, DMF, etc., is selected according to the solvency of the sample, and the volume ratio of the solvent amount to the spray amount is equal to or less than 0.05), diluted with water containing 0.1% Tween 80, and formulated into the test solution with a desired concentration. Cucumber seedlings at leaf period with the same growth period was sprayed evenly with the prepared agent, and aired. Each concentration was one treatment, each treatment was repeated 3 times, a control agent and a water of blank control were set separately. The fresh powdery mildew spores on the leaves of cucumbers were washed and filtered with double gauze to prepare a suspension with a concentration of about 100,000 spores/mL. The samples were inoculated by spraying, the inoculated samples were moved into artificial climate, and relative humidity was maintained at 60-70%, the temperature was maintained at 23° C., after about 10 days, grading investigation was carried out according to the morbidity of the blank control, control effect was calculated according to disease index.

armyworm = experiment: Activity test of armyworm, leaf-dipping method; conditions: after 3 days
Method: A certain amount of the original drug was weighed by an analytical balance (0.0001 g), and dissolved in DMF containing 1% Tween-80 emulsifier to prepare a 1% mother liquor, which was then diluted with distilled water for later use.
The insecticidal efficacy was evaluated by a leaf-dipping method with the armyworm as a target and a spray method with Tetranychus cinnabarinus and Aphis craccivora Koch as a target.
Leaf-dipping method: the target for the test was the armyworm, and corn leaves in an appropriate amount were fully infiltrated in the prepared liquid, then dried naturally, placed in culture dishes with filter papers, inoculated with 3rd instar larvae of the armyworm at 10 heads/dish, and placed in an observation room and cultured at 24˜27° C. the results were investigated after 3 days. A brush was used to touch the insect bodies, and the unresponsive were regarded as dead insects.

[2] = system: adults of Tetranychus cinnabarinus; experiment: Acaricidal comparison, spray method on adults of Tetranychus cinnabarinus
Method: Spray method: the test target was Tetranychus cinnabarinus, that is, broad bean leaves inoculated with adults of Tetranychus cinnabarinus were placed under the spray treatment of Potter spray towers. After treatment, the Tetranychus cinnabarinus was placed in an observation room and cultured at 25˜27° C., and the results were investigated after 48 hours. The brush was used to touch the insect body, and the unresponsive were regarded as dead insects. The test concentrations of the compounds on killing cinnabarin were 50, 25, 12.5, 6.25, 3.125 mg/L.

[3] = system: eggs of Tetranychus cinnabarinus; experiment: Acaricidal comparison, egg test
Method: Egg test: each treated broad bean leave was inoculated with 10 adults of Tetranychus cinnabarinus, and the adults were removed after the eggs were laid for 24 hours. The leaves with eggs were sprayed under Potter spray towers. After treatment, the eggs of Tetranychus cinnabarinus were placed in an observation room and cultured at 25˜27° C. And the test was examined until the eggs under the blank treatment completely hatched out. The concentration of the compound that kills the eggs of Tetranychus cinnabarinus was 100, 50, 25, 12.5, 6.25 mg/L.

[4] = system: nymphs of Tetranychus cinnabarinus; experiment: Acaricidal comparison, nymph test
Method: Nymph test: broad bean leaves were inoculated with 10 adult mites, and the adults were removed after laying eggs for 24 hours. The eggs were fed in insect rearing room, and when they hatched into nymphs, they were sprayed with a sprayer. After treatment, the leaves with the nymphs were placed in an observation room and cultured at 25-27° C., and the results were investigated after 48 hours. A brush was used to touch the insect bodies, and the unresponsive were regarded as the dead. The test concentrations of the compound on killing cinnabarin were 5, 2.5, 1.25, 0.625, 0.3125 mg/L.

| SMILES | effect of preventing powdery mildew [1] | lethal rate on armyworm larvae (armyworm; 500 mg/L, 3rd instar larvae) | also measured |
| --- | --- | --- | --- |
| C=CCSc1nc(C)cc(OCc2ccccc2/C(=C\OC)C(=O)OC)n1 [Compound 1] | 100% | – | – |
| C=CCSc1nc(OCc2ccccc2/C(=C\OC)C(=O)OC)c(Cl)c(C(F)F)n1 [Compound 9] | 100% | 100% | – |
| C=C(Cl)CSc1nc(OCc2ccccc2/C(=C\OC)C(=O)OC)cc(C(F)F)n1 [Compound 34] | 100% | 100% | – |
| C=C(Cl)CSc1nc(OCc2ccccc2/C(=C\OC)C(=O)OC)cc(C(F)(F)F)n1 [Compound 35] | 100% | 100% | – |
| C=C(Cl)CSc1nc(CC)cc(OCc2ccccc2/C(=C\OC)C(=O)OC)n1 [Compound 36] | 100% | 100% | – |
| CO/C=C(/C(=O)OC)c1ccccc1COc1cc(C)nc(SC/C=C/Cl)n1 [Compound 49] | 100% | – | – |
| CO/C=C(/C(=O)OC)c1ccccc1COc1cc(C(F)F)nc(SC/C=C/Cl)n1 [Compound 50] | 100% | – | – |
| CO/C=C(/C(=O)OC)c1ccccc1COc1cc(C(F)(F)F)nc(SC/C=C/Cl)n1 [Compound 51] | 100% | 100% | – |
| CO/C=C(/C(=O)OC)c1ccccc1COc1cc(C2CC2)nc(SC/C=C/Cl)n1 [Compound 55] | 100% | – | – |
| CO/C=C(/C(=O)OC)c1ccccc1COc1cc(C(F)(F)F)nc(SCC=C(Cl)Cl)n1 [Compound 67] | 100% | 100% | lethal rate against adult mites compared with fluacrypyrim ([2]; 50, 25, and 12.5 mg/L): better than that of fluacrypyrim; lethal rate on eggs of Tetranychus cinnabarinus compared with fluacrypyrim ([3]; 100, 50, 25, 12.5, 6.25 mg/L): better than that of fluacrypyrim; lethal rate on nymphs of Tetranychus cinnabarinus compared with fluacrypyrim ([4]; 5, 2.5, 1.25, 0.625, 0.3125 mg/L): better than that of fluacrypyrim |
| CCc1cc(OCc2ccccc2/C(=C\OC)C(=O)OC)nc(SCC=C(Cl)Cl)n1 [Compound 68] | – | – | lethal rate on armyworm larvae (armyworm; 100 mg/L): more than 80% |
| CO/C=C(/C(=O)OC)c1ccccc1COc1cc(C)nc(SCCC=C(F)F)n1 [Compound 113] | 100% | 100% | – |
| CO/C=C(/C(=O)OC)c1ccccc1COc1cc(C(F)F)nc(SCCC=C(F)F)n1 [Compound 114] | 100% | – | – |
| CCc1cc(OCc2ccccc2/C(=C\OC)C(=O)OC)nc(SCCC=C(F)F)n1 [Compound 116] | – | 100% | – |
| CCCc1cc(OCc2ccccc2/C(=C\OC)C(=O)OC)nc(SCCC=C(F)F)n1 [Compound 117] | – | 100% | – |
| CO/C=C(/C(=O)OC)c1ccccc1COc1cc(C(C)C)nc(SCCC=C(F)F)n1 [Compound 118] | – | 100% | – |
| CO/C=C(/C(=O)OC)c1ccccc1COc1cc(C2CC2)nc(SCCC=C(F)F)n1 [Compound 119] | – | 100% | – |
| CO/C=C(/C(=O)OC)c1ccccc1COc1nc(SCCC=C(F)F)nc(C)c1C [Compound 127] | 100% | – | – |
| CCCCc1c(C)nc(SCCC=C(F)F)nc1OCc1ccccc1/C(=C\OC)C(=O)OC [Compound 128] | – | 100% | – |
| C=CCSc1nc(C)cc(OCc2ccccc2/C(=N\OC)C(=O)OC)n1 [Compound 145] | – | 100% | – |
| C=CCSc1nc(OCc2ccccc2/C(=N\OC)C(=O)OC)cc(C(F)F)n1 [Compound 146] | 100% | – | – |
| C=CCSc1nc(OCc2ccccc2/C(=N\OC)C(=O)OC)cc(C(F)(F)F)n1 [Compound 147] | – | 100% | – |
| C=C(Cl)CSc1nc(C)cc(OCc2ccccc2/C(=N\OC)C(=O)OC)n1 [Compound 177] | 100% | – | – |
| C=C(Cl)CSc1nc(OCc2ccccc2/C(=N\OC)C(=O)OC)cc(C(F)(F)F)n1 [Compound 179] | 100% | 100% | – |

| SMILES | effect of preventing powdery mildew [1] | lethal rate on armyworm larvae (armyworm; 500 mg/L, 3rd instar larvae) | also measured |
| --- | --- | --- | --- |
| C=C(Cl)CSc1nc(CC)cc(OCc2ccccc2/C(=N\OC)C(=O)OC)n1 [Compound 180] | 100% | 100% | – |
| C=C(Cl)CSc1nc(C)c(C)c(OCc2ccccc2/C(=N\OC)C(=O)OC)n1 [Compound 191] | 100% | – | – |
| CO/N=C(/C(=O)OC)c1ccccc1COc1cc(C)nc(SC/C=C/Cl)n1 [Compound 193] | 100% | 100% | – |
| CO/N=C(/C(=O)OC)c1ccccc1COc1cc(C(F)F)nc(SC/C=C/Cl)n1 [Compound 194] | 100% | 100% | – |
| CO/N=C(/C(=O)OC)c1ccccc1COc1cc(C2CC2)nc(SC/C=C/Cl)n1 [Compound 199] | 100% | 100% | – |
| CO/N=C(/C(=O)OC)c1ccccc1COc1cc(C(F)(F)F)nc(SCC=C(Cl)Cl)n1 [Compound 211] | – | 100% | – |
| CCCc1cc(OCc2ccccc2/C(=N\OC)C(=O)OC)nc(SCC=C(Cl)Cl)n1 [Compound 213] | – | 100% | – |
| CO/N=C(/C(=O)OC)c1ccccc1COc1cc(C(C)C)nc(SCC=C(Cl)Cl)n1 [Compound 214] | – | 100% | – |
| CO/N=C(/C(=O)OC)c1ccccc1COc1cc(C2CC2)nc(SCC=C(Cl)Cl)n1 [Compound 215] | – | 100% | – |
| CCc1cc(OCc2ccccc2/C(=N\OC)C(=O)OC)nc(SCCC=C(F)F)n1 [Compound 260] | – | 100% | – |
| CCCc1cc(OCc2ccccc2/C(=N\OC)C(=O)OC)nc(SCCC=C(F)F)n1 [Compound 261] | – | 100% | – |
| CO/N=C(/C(=O)OC)c1ccccc1COc1nc(SCCC=C(F)F)nc(C)c1C [Compound 271] | 100% | 100% | – |
| COC(=O)N(OC)c1ccccc1COc1cc(C)nc(SC/C=C/Cl)n1 [Compound 337] | – | 100% | – |
| COC(=O)N(OC)c1ccccc1COc1cc(C(F)F)nc(SC/C=C/Cl)n1 [Compound 338] | – | 100% | – |
| COC(=O)N(OC)c1ccccc1COc1cc(C)nc(SCC=C(Cl)Cl)n1 [Compound 353] | – | 100% | – |
| COC(=O)N(OC)c1ccccc1COc1cc(C(F)F)nc(SCC=C(Cl)Cl)n1 [Compound 354] | – | 100% | – |
| CCc1cc(OCc2ccccc2N(OC)C(=O)OC)nc(SCC=C(Cl)Cl)n1 [Compound 356] | – | 100% | – |
| CCCc1cc(OCc2ccccc2N(OC)C(=O)OC)nc(SCC=C(Cl)Cl)n1 [Compound 357] | – | 100% | – |
| COC(=O)N(OC)c1ccccc1COc1cc(C2CC2)nc(SCC=C(Cl)Cl)n1 [Compound 359] | – | 100% | – |
| CCCc1cc(OCc2ccccc2N(OC)C(=O)OC)nc(SCCC=C(F)F)n1 [Compound 405] | – | 100% | – |
| COC(=O)N(OC)c1ccccc1COc1cc(C(C)C)nc(SCCC=C(F)F)n1 [Compound 406] | – | 100% | – |
| CCc1cc(OCc2ccccc2C(=NOC)C(=O)NC)nc(SCCC=C(F)F)n1 [Compound 549] | – | 100% | – |
| CO/C=C(/C(=O)OC)c1ccccc1COc1cc(C(F)(F)F)nc(OC(C)C)n1 [Fluacrypyrim, fluacrypyrim] | – | – | mortality at 3.125 µg/mL ([2]; Tetranychus cinnabarinus, 48 h): 39.5%; mortality at 6.25 µg/mL ([2]; Tetranychus cinnabarinus, 48 h): 64.6%; mortality at 12.5 µg/mL ([2]; Tetranychus cinnabarinus, 48 h): 70.6%; mortality at 25 µg/mL ([2]; Tetranychus cinnabarinus, 48 h): 75.9%; mortality at 50 µg/mL ([2]; Tetranychus cinnabarinus, 48 h): 88.9%; mortality at 6.25 µg/mL ([3]; Tetranychus cinnabarinus): 10.8%; mortality at 12.5 µg/mL ([3]; Tetranychus cinnabarinus): 13.6%; mortality at 25 µg/mL ([3]; Tetranychus cinnabarinus): 32.2%; mortality at 50 µg/mL ([3]; Tetranychus cinnabarinus): 54.9%; mortality at 100 µg/mL ([3]; Tetranychus cinnabarinus): 75%; mortality at 0.3125 µg/mL ([4]; Tetranychus cinnabarinus, 48 h): 7.74%; mortality at 0.625 µg/mL ([4]; Tetranychus cinnabarinus, 48 h): 17.1%; mortality at 1.25 µg/mL ([4]; Tetranychus cinnabarinus, 48 h): 28.8%; mortality at 2.5 µg/mL ([4]; Tetranychus cinnabarinus, 48 h): 55.3%; mortality at 5 µg/mL ([4]; Tetranychus cinnabarinus, 48 h): 82.5% |
